# Source: patent US8580787B2, “Compositions and methods for reducing activation of alpha-1 receptors” (Eye Therapies LLC, priority 2008, dated 2013)
# How the values were obtained:
# [1] = Example 5: chronic red eyes, patient satisfaction assessment, eld brimonidine vs Naphcon-A; assay type: in vivo, human; conditions: brimonidine at […], drops twice a day for three to five weeks, seven patients, all patients
# Method: The treatment was through drops twice a day for three to five weeks. At the end, patient satisfaction assessment was conducted.
# [2] = brimonidine 0.01-[…] left eye vs tetrahydrozoline 0.05%, oxymetazoline […], naphazoline […] right eye; baseline redness 4/4
# From the text: FIG. 4A is a baseline visual appearance of two eyes of a patient with an ocular condition.
# In an average clinical situation, baseline redness is at 1-1.5/4.
# [3] = Example 2: Lasik prophylaxis, postoperative hyperemia, hemorrhage and flap dislocation; conditions: brimonidine 0.02%
# [4] = FIGS. 5A-C: induction and reversal of rebound hyperemia in a patient's eyes; assay type: in vivo, human; conditions: brimonidine at […], right eye, after VISINE Original
# From the text: FIG. 5A is a baseline visual appearance of two eyes of a patient with an ocular condition.
# [5] = 0.03% brimonidine nasal spray, 0.9% saline vehicle, n of 1
structure (smiles),measurement,setting,value
"Brc1c(N=C2NCCN2)ccc2nccnc12.O=C(O)C(O)C(O)C(=O)O [brimonidine, 5-bromo-6-(2-imidazolidinylideneamino)quinoxaline L-tartrate]",patient-reported redness,[1],reduced redness
same,scleral whitening brightening effects,[2],significant scleral whitening brightening effects
same,cosmetic appearance vs. no vasoconstrictor and vs. Naphcon-A,[3]; from day 1 after Lasik,much improved
same,hyperemia in the majority of the 1+ or less hyperemic group,[3]; over 500 eyes,no or only trace hyperemia
same,effect on VISINE Original induced rebound hyperemia,[4],reversing the VISINE Original® induced rebound hyperemia
same,duration of complete relief of moderate nasal congestion per application,[5],3 to 5 h
